Values quoted from earlier work, collected in patent publication US20070044813A1, “Use of snuff for treatment of house dust mite allergy and/or cigarette smoke allergy” (priority 2005, published 2007).
Where a name gives a salt, the structure may show the parent alone.

Tested on: symptoms of house dust mite allergy and cigarette smoke allergy
Settings: conventional medicaments; control the symptoms only partly

For `Clc1ccc2c(c1)CCc1cccnc1C2=C1CCNCC1` [desloratadine], the “alleviation of the symptoms” value is given as “around 40%”.

For `CC(C)(C(=O)O)c1ccc(C(O)CCCN2CCC(C(O)(c3ccccc3)c3ccccc3)CC2)cc1` (centres unmarked) [fexofenadine hydrochloride], the “alleviation of the symptoms” value is given as “around 40%”.
